Laboratory results taken from patent US9879050B2, “Substituted urea depsipeptide analogs as activators of the CLPP endopeptidase” (priority 2013, dated 2018).
≈ marks a conversion by molar mass, not a printed value. Read-outs that look alike come from different tables or passages of the source.

What was measured:
[1] = tested on: Vero (kidney epithelial cells; ATCC CCL-81); assay: Cytotoxicity assay, CellTiter-Glo cell viability; format: cell-based; details: Vero cells, 72 hours
Summary of the method: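 Vero cells seeded overnight at 37 °C in DMEM with 10% FBS, then exposed to serial dilutions of compound for 72 h. Viability read by CellTiter-Glo luminescence; IC50 from duplicates, given as the range of two independent experiments.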

S. pneumoniae R6 = assay: Minimal inhibitory concentration, microbroth dilution; format: cell-based
Summary of the method: (§1)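 Twofold serial dilutions in broth per CLSI M7-A7 microbroth dilution, incubated aerobically overnight at 37° C. MIC read visually as lowest concentration preventing bacterial growth.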

S. pyogenes ATCC 700294 = assay: as above; format: cell-based
Summary of the method: as §1

S. aureus ATCC 29213 = assay: as above; format: cell-based
Summary of the method: (§2)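 Following CLSI M7-A7 microbroth dilution, twofold serial dilutions of compound (top final concentration 200 μM) were combined with an equal volume of broth inoculum at about 10^5 cfu/mL. Plates were incubated aerobically at 37 °C overnight, and the MIC was the lowest concentration preventing visible growth.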

B. subtilis ATCC 23857 = assay: as above; format: cell-based
Summary of the method: as §2

S. aureus NRS70 = assay: as above; format: cell-based
Summary of the method: as §2

S. aureus USA 300 ΔClpP = assay: as above; format: cell-based, Staphylococcus aureus; details: ClpP inactivated strain
Summary of the method: as §2

S. aureus USA 300 = assay: as above; format: cell-based
Summary of the method: as §2

[2] = from C[C@H]1C[C@@H](C(=O)O[C@@H](C)[C@H](NC(=O)OCc2ccccc2)C(=O)OCC(=O)c2ccccc2)N(C(=O)[C@H](C)NC(=O)[C@@H]2CCCCN2C(=O)[C@@H]2CCCN2C(=O)OC(C)(C)C)C1, amide bond, pentafluorophenyl ester (EDC·HCl/pentafluorophenol), then aq NaHCO3, DCM, 1.24 mM, 25.0 °C, 4 steps
[3] = Streptococcus pneumoniae, R6, read-out: Minimal Inhibitory Concentration S. pneumoniae R6
[4] = Streptococcus pyogenes, ATCC700294, read-out: Minimal Inhibitory Concentration S. pyogenes ATCC 700294
[5] = Staphylococcus aureus, ATCC29213, read-out: Minimal Inhibitory Concentration S. aureus ATCC 29213
[6] = Bacillus subtilis, ATCC23857, read-out: Minimal Inhibitory Concentration B. subtilis ATCC 23857
[7] = Staphylococcus aureus, NRS70, read-out: Minimal Inhibitory Concentration S. aureus NRS70
[8] = Staphylococcus aureus, USA300, read-out: Minimal Inhibitory Concentration S. aureus USA 300
[9] = Streptococcus pneumoniae, R6; read-out: Minimal Inhibitory Concentration S. pneumoniae R6
[10] = Streptococcus pyogenes, ATCC700294; read-out: Minimal Inhibitory Concentration S. pyogenes ATCC 700294
[11] = Staphylococcus aureus, ATCC29213; read-out: Minimal Inhibitory Concentration S. aureus ATCC 29213
[12] = Bacillus subtilis, ATCC23857; read-out: Minimal Inhibitory Concentration B. subtilis ATCC 23857
[13] = Staphylococcus aureus, NRS70; read-out: Minimal Inhibitory Concentration S. aureus NRS70
[14] = Staphylococcus aureus, USA300; read-out: Minimal Inhibitory Concentration S. aureus USA 300

| Compound | IC50 [1] [µM] | MIC (S. pneumoniae R6; [3]) [µM] | MIC (S. pyogenes ATCC 700294; [4]) [µM] | MIC (S. aureus ATCC 29213; [5]) [µM] | MIC (B. subtilis ATCC 23857; [6]) [µM] | MIC (S. aureus NRS70; [7]) [µM] | Minimal Inhibitory Concentration S. aureus USA 300 ΔClpP (S. aureus USA 300 ΔClpP) [µM] | MIC (S. aureus USA 300; [8]) [µM] | ring closure, yield of all isomers [2] [%] | MIC (S. pneumoniae R6; [9]) [µM] | MIC (S. pyogenes ATCC 700294; [10]) [µM] | MIC (S. aureus ATCC 29213; [11]) [µM] | MIC (B. subtilis ATCC 23857; [12]) [µM] | MIC (S. aureus NRS70; [13]) [µM] | MIC (S. aureus USA 300; [14]) [µM] |
| --- | --- | --- | --- | --- | --- | --- | --- | --- | --- | --- | --- | --- | --- | --- | --- |
| Cc1ccc(NC(=O)N[C@@H](Cc2cc(F)cc(F)c2)C(=O)N[C@@H]2C(=O)N3C[C@H](O)CC3C(=O)N(C)[C@@H](C)C(=O)N[C@@H](C)C(=O)N3C[C@@H](C)CC3C(=O)O[C@H]2C)cc1 (stereo partly drawn) [Compound 31, (S)-3-(3,5-Difluorophenyl)-N-((2S,6S,9S,11aS,13R,17S,18S,20aS)-13-Hydroxy-2,6,9,10,18-Pentamethyl-5,8,11,16,20-Pentaoxohexadecahydro-1H,5H,16H-Dipyrrolo[2,1-C:2′,1′-L][1]Oxa[4,7,10,13]Tetraazacyclohexadecin-17-Yl)-2-(3-(P-Tolyl)Ureido)Propanamide] | > 100 | 0.195 (≈ 0.156 µg/mL) | 0.78 (≈ 0.622 µg/mL) | 0.39 (≈ 0.311 µg/mL) | 0.39 (≈ 0.311 µg/mL) | 0.39 (≈ 0.311 µg/mL) | >200 |  |  |  |  |  |  |  |  |
| Cc1ccc(NC(=O)N[C@@H](Cc2cc(F)cc(F)c2)C(=O)N[C@@H]2C(=O)N3CCCC3C(=O)N(C)[C@@H]([C@H](C)O)C(=O)N[C@@H](C)C(=O)N3C[C@H](C)CC3C(=O)O[C@H]2C)cc1 (stereo partly drawn) [Compound 38, (S)-3-(3,5-Difluorophenyl)-N-((2R,6S,9S,11aS,17S,18S,20aS)-9-((S)-1-Hydroxyethyl)-2,6,10,18-Tetramethyl-5,8,11,16,20-Pentaoxohexadecahydro-1H,5H,16H-Dipyrrolo[2,1-C:2′,1′-L][1]Oxa[4,7,10,13]Tetraazacyclohexadecin-17-Yl)-2-(3-(P-Tolyl)Ureido)Propanamide] | 46.1 ± 5.5 | 0.02 (≈ 0.0162 µg/mL) | 0.1 (≈ 0.0812 µg/mL) | 0.05 (≈ 0.0406 µg/mL) | 0.05 (≈ 0.0406 µg/mL) | 0.05 (≈ 0.0406 µg/mL) | 200 | 0.1 (≈ 0.0812 µg/mL) |  |  |  |  |  |  |  |
| C[C@H]1C[C@H]2C(=O)O[C@@H](C)[C@H](NC(=O)OCc3ccccc3)C(=O)N3CCC[C@H]3C(=O)N3CCCC[C@H]3C(=O)N[C@@H](C)C(=O)N2C1 |  |  |  |  |  |  |  |  | 74 |  |  |  |  |  |  |
| CCc1ccc(NC(=O)N[C@@H](Cc2cc(F)cc(F)c2)C(=O)N[C@@H]2C(=O)N3CCCC3C(=O)N(C)[C@@H]([C@H](C)O)C(=O)N[C@@H](C)C(=O)N3C[C@H](C)CC3C(=O)O[C@H]2C)cc1 (stereo partly drawn) [Compound 42, (S)-3-(3,5-Difluorophenyl)-2-(3-(4-Ethylphenyl)Ureido)-N-((2R,6S,9S,11aS,17S,18S,20aS)-9-((S)-1-Hydroxyethyl)-2,6,10,18-Tetramethyl-5,8,11,16,20-Pentaoxohexadecahydro-1H,5H,16H-Dipyrrolo[2,1-C:2′,1′-L][1]Oxa[4,7,10,13]Tetraazacyclohexadecin-17-Yl)Propanamide] |  |  |  |  |  |  | 100 |  |  | 0.01 (≈ 0.00826 µg/mL) | 0.05 (≈ 0.0413 µg/mL) | 0.05 (≈ 0.0413 µg/mL) | 0.01 (≈ 0.00826 µg/mL) | 0.02 (≈ 0.0165 µg/mL) | 0.1 (≈ 0.0826 µg/mL) |
| C[C@H]1CC2C(=O)O[C@@H](C)[C@H](NC(=O)[C@H](Cc3cc(F)cc(F)c3)NC(=O)Nc3ccc(OC(F)(F)F)cc3)C(=O)N3CCCC3C(=O)N(C)[C@@H]([C@H](C)O)C(=O)N[C@@H](C)C(=O)N2C1 (stereo partly drawn) [Compound 36, (S)-3-(3,5-Difluorophenyl)-N-((2S,6S,9S,11aS,17S,18S,20aS)-9-((S)-1-Hydroxyethyl)-2,6,10,18-Tetramethyl-5,8,11,16,20-Pentaoxohexadecahydro-1H,5H,16H-Dipyrrolo[2,1-C:2′,1′-L][1]Oxa[4,7,10,13]Tetraazacyclohexadecin-17-Yl)-2-(3-(4-(Trifluoromethoxy)Phenyl)Ureido)Propanamide] |  |  |  |  |  |  | 50 |  |  | 0.024 (≈ 0.0212 µg/mL) | 0.2 (≈ 0.176 µg/mL) | 0.1 (≈ 0.0882 µg/mL) | 0.1 (≈ 0.0882 µg/mL) | 0.05 (≈ 0.0441 µg/mL) | 0.1 (≈ 0.0882 µg/mL) |
| Cc1ccc(NC(=O)N[C@@H](Cc2cc(F)cc(F)c2)C(=O)N[C@@H]2C(=O)N3CCCC3C(=O)N(C)[C@@H]([C@H](C)O)C(=O)N[C@@H](C)C(=O)N3C[C@@H](C)CC3C(=O)O[C@H]2C)cc1 (stereo partly drawn) [Compound 35, (S)-3-(3,5-Difluorophenyl)-N-((2S,6S,9S,11aS,17S,18S,20aS)-9-((S)-1-Hydroxyethyl)-2,6,10,18-Tetramethyl-5,8,11,16,20-Pentaoxohexadecahydro-1H,5H,16H-Dipyrrolo[2,1-C:2′,1′-L][1]Oxa[4,7,10,13]Tetraazacyclohexadecin-17-Yl)-2-(3-(P-Tolyl)Ureido)Propanamide] | 55.7 ± 3.6 | 0.049 (≈ 0.0398 µg/mL) | 0.39 (≈ 0.317 µg/mL) | 0.2 (≈ 0.162 µg/mL) | 0.2 (≈ 0.162 µg/mL) | 0.1 (≈ 0.0812 µg/mL) | 200 | 0.2 (≈ 0.162 µg/mL) |  |  |  |  |  |  |  |
| C[C@@H]1CC2C(=O)O[C@@H](C)[C@H](NC(=O)[C@H](Cc3cc(F)cc(F)c3)NC(=O)Nc3ccc(OC(F)(F)F)cc3)C(=O)N3CCCC3C(=O)N(C)[C@@H]([C@H](C)O)C(=O)N[C@@H](C)C(=O)N2C1 (stereo partly drawn) [Compound 41, (S)-3-(3,5-Difluorophenyl)-N-((2R,6S,9S,11aS,17S,18S,20aS)-9-((S)-1-Hydroxyethyl)-2,6,10,18-Tetramethyl-5,8,11,16,20-Pentaoxohexadecahydro-1H,5H,16H-Dipyrrolo[2,1-C:2′,1′-L][1]Oxa[4,7,10,13]Tetraazacyclohexadecin-17-Yl)-2-(3-(4-(Trifluoromethoxy)Phenyl)Ureido)Propanamide] |  |  |  |  |  |  | 50 |  |  | 0.02 (≈ 0.0176 µg/mL) | 0.1 (≈ 0.0882 µg/mL) | 0.02 (≈ 0.0176 µg/mL) | 0.01 (≈ 0.00882 µg/mL) | 0.01 (≈ 0.00882 µg/mL) | 0.02 (≈ 0.0176 µg/mL) |
